# Assay results taken from patent US20030134859A1 (SANKYO COMPANY, LIMITED, priority 2000, published 2003).
# Like-named read-outs stand apart in the source and are kept apart here.
# Key:
# [1] = system: Rat white adipocytes; experiment: Inhibition of the differentiation of adipocytes (Oil Red O); assay type: cell-based; conditions: Rattus norvegicus, Adipocyte, 120 h, 100 nM test compound; 5 days; Oil Red O ABS550; control = 100%, blank = 0%; Table 3; read-out: Rate of Differentiation (%)
# Protocol: Rat white adipocytes contained in the white adipocyte culture kit purchased from HOKUDO were used. As the medium for proliferation and for differentiation-inducing, the medium contained in the white adipocyte culture kit purchased from HOKUDO was used. The cells in the present experiment were cultured in a CO2 incubator (37° C., 95% R.H., 5% CO2).
# Immediately after arrival of the purchased cells, all medium for transportation was discarded and replaced with 5 ml of proliferation medium (/25 cm^2-flask) and the cells were cultured for one day. Then, a cell suspension was prepared with proliferation medium so as to be 83,000 cells/mL, and the cell suspension was plated into a type I 96-well collagen-coated microplate (SUMITOMO BAKELITE CO., ltd.) so as to be 5,000 cells/well (60 μL/well).
# On the next day, all the proliferation medium was discarded and replaced with 147 μL/well of differentiation-inducing medium. Further, 1) in the group treated with the test compound, 3 μL/well of the solution, in which a test compound (100 μM) was dissolved in DMSO solution and diluted with differentiation-inducing medium by 20 times (final concentration of the test compound: 100 nM, final concentration of DMSO solution: 0.1% (v/v)), were added to the well where the cells were plated. 2) In the control group, 3 μL/well of DMSO solution that was diluted with differentiation-inducing medium by 20 times (final concentration of DMSO: 0.1% (v/v)) were added to the well where the cells were plated. Further, 3) in the blank group, 3 μL/well of DMSO solution that was diluted with differentiation-inducing medium by 20 times (final concentration: 0.1% (v/v)), was added to the blank well.
# After culturing for 5 days, all differentiation-inducing medium was discarded and replaced with 60 μL of 10% (v/v) formaldehyde solution (for fixation) in each well and the cells were kept stationary for 20 min at room temperature. After this, the fixative solution was discarded and replaced with 60 μL of 0.2% (v/v) Triton X (Sigma-Aldrich Japan K. K.) solution in each well and kept stationary for 5 min at room temperature. Then all Triton X solution was discarded and replaced with 60 μL of 60% (v/v) isopropanol solution containing dissolved Oil Red O (Sigma-Aldrich Japan K. K.) so as to be 0.3%, which was adipose tissue staining solution, and the well was left stationary for 10 min at room temperature. After the adipose tissue staining solution was discarded, the well was washed twice with 60 JIL of 60% isopropanol solution. Then, 100 μL of the DMSO solution were added to each well and stirred for 5 min at room temperature, The absorbance was measured at 550 nm (ABS550) with a multi-plate reader (LabSystems), and the stained amount with Oil Red O was determined. The measured level at ABS550 in the control group was defined as 100%, while the level at ABS550 in the blank group was defined as 0%. The differentiation rate (%) of the adipocytes treated with the test compound was calculated.
# [2] = system: leptin production; experiment: Enhancing activity for leptin production in adipocytes (ELISA); assay type: cell-based, rat; conditions: Rattus norvegicus, Adipocyte, leptin concentration as % of control group, read-out: Facilitating activity to produce leptin; for activity at 0.01 µM: 10 nm; for activity at 0.1 µM: 100 nm
# Protocol: Hanks solution was used for collection of adipose tissue. The Hanks solution was prepared by filtration of a mixed solution (pH: 7.5) of 120 mM NaCl, 4.8 mM KCl, 0.74 mM MgSO4, 0.30 mM Na2HPO4, 0.40 mM KH2PO4, 20 mM HEPES, 0.05% (w/v) glucose, 2% (w/v) BSA (Sigma-Aldrich Japan K. K., Cat. No. A7888), 0.95 mM CaCl2, 4.17 mM NaHCO3 and 1% (v/v) penicillin-streptomycin liquid (GIBCO BRL, Cat. No. 15140-122). The adipocytes were cultured in Dulbecco's modified Eagle's medium (GIBCO BRL, Cat. No. 11995-040) mixed with DMEM/F-12 (GIBCO BRL, Cat. No. 11320-033) at a ratio of 1:1, and added 0.2% (v/v) Hanks solution, 0.2 μg/L sodium selenite (GIBCO BRL, Cat. No. 13012-018), 0.002% (v/v) ethanolamine, 25 mM HEPES and 1% (v/v) penicillin-streptomycin liquid (GIBCO BRL, Cat. No. 15140-122). As many as possible of the other reagents used were special grade. In this experiment, the cells were cultured in a CO2 incubator (37° C., 95% humidity, 5% CO2).
# Male Wistar Imamichi rats of 6 weeks old were sacrificed by bleeding following decapitation, and adipose tissue was removed from the epididymis and sectioned after the vessels were removed in warmed Hanks solution at 37° C. and were weighed. One (1) mL of Hanks solution containing 10 mg collagenase (Wako Pure Chemical Industries, Ltd., 034-10533) was added to the adipose tissue prepared. The solution was transferred into a tube having a volume of 50 mL, and the cells were evenly dispersed by incubation under gentle shaking at 37° C., 90 rpm, for 50 min. Then 20 mL of Hanks solution were added and filtrated through Nylon-mesh with a mesh diameter of 200 μm for removal of undigested tissue pieces. The floating adipocytes were separated from sediments and substances located in the lower layer by centrifugation at 1,000 rpm for 1 min at room temperature. The sediment and 22 mL of the low layer were pulled out with a probe, and the floating adipocytes were recovered. This procedure was repeated twice with Hanks solution and for 4 times with the culture medium. After these procedures the adipocytes were suspended in the culture medium at a volume of 60 mL per 1 g of the adipose tissue weighed previously. 100 μL of the suspended solution were plated in each well of a 96-well microplate (ASAHI TECHNO GLASS Corp.) In the group treated with the test compound, 1 μL/well of DMSO solution containing the dissolved the test compound at concentrations of 200 μM, 20 μM, 2 μM and 0.2 μM (final concentrations of the test compound: 1 μM, 100 nM, 10 nM and 1 nM, respectively) was plated in each of the well. In the control group, 1 μL/well of DMSO (final concentration: 0.1% (v/v)) was plated in each well. The plate was placed stationary in a CO2 incubator for 1 hr or longer, and the contents in the solution were equilibrated at 37° C. After they were equilibrated, the solution in each well was stirred with a magnetic stirrer in a water bath and the suspended solution maintained at 37° C. was plated into each well of the plate at 100 μL/well. After incubation of the cells for 24 hr, the suspended solution of cells was filtrated through a filter for the microplate, MultiScreen (MILLOPORE, MDV-N65). The concentration of leptin in the filtrated solution was determined with ELISA methods by using a Rat Leptin Determination Kit-IBL (Immuno-Biological Laboratories Co., Ltd., Cat. No. 17195). The facilitating activity of the compound to produce leptin was calculated from the following equation based on the concentration of leptin determined.
# Facilitating Activity of the Compound to Produce Leptin (%)=(A/B)×100
# A: Concentration of Leptin in the Treated Group with the Test Compound.
# B: Concentration of Leptin in the Control Group.
Compound,activity at 0.1 µM [1] [%],activity at 1 µM ([2]; 24 hr) [%],"activity at 0.001 µM ([2]; 1 nm, 24 hr) [%]",activity at 0.01 µM ([2]; 24 hr) [%],activity at 0.1 µM ([2]; 24 hr) [%],activity at 1 µM ([2]; 24 h) [%],activity at 0.01 µM ([2]; 24 h) [%],activity at 0.1 µM ([2]; 24 h) [%]
"O=C(Nc1ccc(-c2ccc(NC(=O)c3cc([N+](=O)[O-])ccc3Cl)cc2)cc1)c1cc([N+](=O)[O-])ccc1Cl [Example 163, 4-[4-[(2-Chloro-5-nitrophenyl)carbonylamino)phenyl]phenyl-(2-chloro-5-nitrophenyl)carboxamide]",48,124,108,117,118,–,–,–
"O=C(Nc1ccc(-c2ccc(-n3cccc3)cc2)cc1)c1cc([N+](=O)[O-])ccc1Cl [Example 186, N-[4-[4-(Pyrrol-1-yl)phenyl]phenyl]-(2-chloro-5-nitrophenyl)carboxamide]",56.3,–,–,–,–,133,118,117
"CCCCCCN(CCC)c1ccc(-c2ccc(NC(=O)c3cc([N+](=O)[O-])ccc3Cl)cc2)cc1 [Example 198, N-[4-[4-(N-Hexyl-N-propylamino)phenyl]phenyl]-(2-chloro-5-nitrophenyl)carboxamide]",48.2,–,–,–,–,111,–,111
"CCCCCCN(CCCCC)c1ccc(-c2ccc(NC(=O)c3cc([N+](=O)[O-])ccc3Cl)cc2)cc1 [Example 200, N-[4-[4-(N-Hexyl-N-pentylamino)phenyl]phenyl]-(2-chloro-5-nitrophenyl)carboxamide]",44.1,–,–,–,–,117,–,–
"CCCCCCN(CCCCCC)c1ccc(-c2ccc(NC(=O)c3cc([N+](=O)[O-])ccc3Cl)cc2)cc1 [Example 201, N-[4-[4-(N,N-Dihexylamino)phenyl]phenyl]-(2-chloro-5-nitrophenyl)carboxamide]",46.9,–,–,–,–,112,–,114
"CCCCCNc1ccc(-c2ccc(NC(=O)c3cc([N+](=O)[O-])ccc3Cl)cc2)cc1 [Example 202, N-[4-[4-(N-Pentylamino)phenyl]phenyl]-(2-chloro-5-nitrophenyl)carboxamide]",35.4,–,–,–,–,137,136,133
"CCCCCCCCN(C)c1ccc(-c2ccc(NC(=O)c3cc([N+](=O)[O-])ccc3Cl)cc2)cc1 [Example 226, N-[4-[4-(N-Methyl-N-octylamino)phenyl]phenyl]-(2-chloro-5-nitrophenyl)carboxamide]",42,–,–,–,–,–,111,–
"CNC(=S)Nc1ccc(-c2ccc(NC(=O)c3cc([N+](=O)[O-])ccc3Cl)cc2)cc1 [Example 236, N-[4-[4-(Methylaminothiocarbonylamino)phenyl]phenyl]-(2-chloro-5-nitrophenyl)carboxamide]",47.1,–,–,–,–,–,112,–
"O=C(Nc1ccccc1)Nc1ccc(-c2ccc(NC(=O)c3cc([N+](=O)[O-])ccc3Cl)cc2)cc1 [Example 242, N-[4-[4-(Phenylaminocarbonylamino)phenyl]phenyl]-(2-chloro-5-nitrophenyl)carboxamide]",57.6,–,–,–,–,–,–,111
"O=C(Nc1ccc(-c2ccc(NC(=O)c3cc([N+](=O)[O-])ccc3Cl)cc2)cc1)Nc1ccc(F)cc1F [Example 249, N-[4-[4-[(2,4-Difluorophenyl)aminocarbonylamino]phenyl]phenyl]-(2-chloro-5-nitrophenyl)carboxamide]",61.9,–,–,–,–,111,114,113
"NC(=O)NCCc1ccc(NC(=O)c2cc([N+](=O)[O-])ccc2Cl)cc1 [Example 270, N-[4-(2-Aminocarbonylaminoethyl)phenyl]-(2-chloro-5-nitrophenyl)carboxamide]",45.9,–,–,–,–,–,118,–
